Data: ChEMBL document CHEMBL1147434, “Synthesis and biological results of the technetium-99m-labeled 4-nitroimidazole for imaging tumor hypoxia” (Bioorg Med Chem Lett, 2004)

Tests used:
Type in all cases: ADME, organism-based
Mus musculus [1] = experiment: In vivo biodistribution of radiolabeled [99mTc]N4IPA in mice tumor/heart bearing S180 tumor cell line for 1 hour; conditions: ccrf s-180, 1 h
Mus musculus [2] = experiment: In vivo biodistribution of radiolabeled [99mTc]N4IPA in mice tumor/muscle bearing S180 tumor cell line for 1 hour; conditions: ccrf s-180, 1 h
Mus musculus [3] = experiment: In vivo biodistribution of radiolabeled [99mTc]-N4IPA in mice muscle bearing S180 tumor cell line for 1 hour; conditions: ccrf s-180, 1 h
Mus musculus [4] = experiment: In vivo biodistribution of radiolabeled [99mTc]-N4IPA in mice tumor/muscle bearing S180 tumor cell line for 4 hours; conditions: ccrf s-180, 4 h
Mus musculus [5] = experiment: In vivo biodistribution of radiolabeled [99mTc]-N4IPA in mice spleen bearing S180 tumor cell line for 8 hours; conditions: ccrf s-180, 8 h
Mus musculus [6] = experiment: In vivo biodistribution of radiolabeled [99mTc]-N4IPA in mice heart bearing S180 tumor cell line for 30 minutes; conditions: ccrf s-180, 0.5 h
Mus musculus [7] = experiment: In vivo biodistribution of radiolabeled [99mTc]-N4IPA in mice muscle bearing S180 tumor cell line for 8 hours; conditions: ccrf s-180, 8 h
Mus musculus [8] = experiment: In vivo biodistribution of radiolabeled [99mTc]N4IPA in mice tumor/liver bearing S180 tumor cell line for 30 minutes; conditions: ccrf s-180, 0.5 h
Mus musculus [9] = experiment: In vivo biodistribution of radiolabeled [99mTc]N4IPA in mice brain bearing S180 tumor cell line for 8 hours; conditions: ccrf s-180, 8 h
Mus musculus [10] = experiment: In vivo biodistribution of radiolabeled [99mTc]-N4IPA in mice tumor/muscle bearing S180 tumor cell line for 2 hours; conditions: ccrf s-180, 2 h
Mus musculus [11] = experiment: In vivo biodistribution of radiolabeled [99mTc]N4IPA in mice brain bearing S180 tumor cell line for 4 hours; conditions: ccrf s-180, 4 h
Mus musculus [12] = experiment: In vivo biodistribution of radiolabeled [99mTc]-N4IPA in mice kidney bearing S180 tumor cell line for 30 minutes; conditions: ccrf s-180, 0.5 h
Mus musculus [13] = experiment: In vivo biodistribution of radiolabeled [99mTc]-N4IPA in mice kidney bearing S180 tumor cell line for 4 hours; conditions: ccrf s-180, 4 h
Mus musculus [14] = experiment: In vivo biodistribution of radiolabeled [99mTc]N4IPA in mice kidney bearing S180 tumor cell line for 2 hours; conditions: ccrf s-180, 2 h
Mus musculus [15] = experiment: In vivo biodistribution of radiolabeled [99mTc]N4IPA in mice tumor/muscle bearing S180 tumor cell line for 30 minutes; conditions: ccrf s-180, 0.5 h
Mus musculus [16] = experiment: In vivo biodistribution of radiolabeled [99mTc]N4IPA in mice tumor/blood bearing S180 tumor cell line for 4 hours; conditions: ccrf s-180, 4 h
Mus musculus [17] = experiment: In vivo biodistribution of radiolabeled [99mTc]-N4IPA in mice tumor/lung bearing S180 tumor cell line for 4 hours; conditions: ccrf s-180, 4 h
Mus musculus [18] = experiment: In vivo biodistribution of radiolabeled [99mTc]-N4IPA in mice kidney bearing S180 tumor cell line for 8 hours; conditions: ccrf s-180, 8 h
Mus musculus [19] = experiment: In vivo biodistribution of radiolabeled [99mTc]-N4IPA in mice lung bearing S180 tumor cell line for 2 hours; conditions: ccrf s-180, 2 h
Mus musculus [20] = experiment: In vivo biodistribution of radiolabeled [99mTc]-N4IPA in mice tumor bearing S180 tumor cell line for 30 minutes; conditions: ccrf s-180, 0.5 h
Mus musculus [21] = experiment: In vivo biodistribution of radiolabeled [99mTc]N4IPA in mice kidney bearing S180 tumor cell line for 1 hour; conditions: ccrf s-180, 1 h
Mus musculus [22] = experiment: In vivo biodistribution of radiolabeled [99mTc]-N4IPA in mice tumor/liver bearing S180 tumor cell line for 1 hour; conditions: ccrf s-180, 1 h
Mus musculus [23] = experiment: In vivo biodistribution of radiolabeled [99mTc]-N4IPA in mice tumor/lung bearing S180 tumor cell line for 8 hours; conditions: ccrf s-180, 8 h
Mus musculus [24] = experiment: In vivo biodistribution of radiolabeled [99mTc]N4IPA in mice lung bearing S180 tumor cell line for 8 hours; conditions: ccrf s-180, 8 h
Mus musculus [25] = experiment: In vivo biodistribution of radiolabeled [99mTc]N4IPA in mice heart bearing S180 tumor cell line for 4 hours; conditions: ccrf s-180, 4 h
Mus musculus [26] = experiment: In vivo biodistribution of radiolabeled [99mTc]-N4IPA in mice tumor/heart bearing S180 tumor cell line for 4 hours; conditions: ccrf s-180, 4 h
Mus musculus [27] = experiment: In vivo biodistribution of radiolabeled [99mTc]-N4IPA in mice muscle bearing S180 tumor cell line for 4 hours; conditions: ccrf s-180, 4 h
Mus musculus [28] = experiment: In vivo biodistribution of radiolabeled [99mTc]N4IPA in mice heart bearing S180 tumor cell line for 2 hours; conditions: ccrf s-180, 2 h
Mus musculus [29] = experiment: In vivo biodistribution of radiolabeled [99mTc]-N4IPA in mice blood bearing S180 tumor cell line for 8 hours; conditions: ccrf s-180, 8 h
Mus musculus [30] = experiment: In vivo biodistribution of radiolabeled [99mTc]N4IPA in mice tumor/blood bearing S180 tumor cell line for 8 hours; conditions: ccrf s-180, 8 h
Mus musculus [31] = experiment: In vivo biodistribution of radiolabeled [99mTc]-N4IPA in mice spleen bearing S180 tumor cell line for 4 hours; conditions: ccrf s-180, 4 h
Mus musculus [32] = experiment: In vivo biodistribution of radiolabeled [99mTc]N4IPA in mice tumor bearing S180 tumor cell line for 2 hours; conditions: ccrf s-180, 2 h
Mus musculus [33] = experiment: In vivo biodistribution of radiolabeled [99mTc]-N4IPA in mice spleen bearing S180 tumor cell line for 2 hours; conditions: ccrf s-180, 2 h
Mus musculus [34] = experiment: In vivo biodistribution of radiolabeled [99mTc]N4IPA in mice tumor/blood bearing S180 tumor cell line for 2 hours; conditions: ccrf s-180, 2 h
Mus musculus [35] = experiment: In vivo biodistribution of radiolabeled [99mTc]N4IPA in mice spleen bearing S180 tumor cell line for 1 hour; conditions: ccrf s-180, 1 h

Biodistribution (Mus musculus [1]): 3.22 % g-1
Biodistribution (Mus musculus [2]): 4.25 % g-1
Biodistribution (Mus musculus [3]): 0.11 % g-1
Biodistribution (Mus musculus [4]): 8.6 % g-1
Biodistribution (Mus musculus [5]): 0.06 % g-1
Biodistribution (Mus musculus [6]): 0.24 % g-1
Biodistribution (Mus musculus [7]): 0.04 % g-1
Biodistribution (Mus musculus [8]): 0.56 % g-1
Biodistribution (Mus musculus [9]): 0.04 % g-1
Biodistribution (Mus musculus [10]): 8.12 % g-1
Biodistribution (Mus musculus [11]): 0.04 % g-1
Biodistribution (Mus musculus [12]): 5.63 % g-1
Biodistribution (Mus musculus [13]): 3.14 % g-1
Biodistribution (Mus musculus [14]): 3.8 % g-1
Biodistribution (Mus musculus [15]): 3.66 % g-1
Biodistribution (Mus musculus [16]): 1.88 % g-1
Biodistribution (Mus musculus [17]): 2.94 % g-1
Biodistribution (Mus musculus [18]): 2.26 % g-1
Biodistribution (Mus musculus [19]): 0.17 % g-1
Biodistribution (Mus musculus [20]): 0.55 % g-1
Biodistribution (Mus musculus [21]): 5.44 % g-1
Biodistribution (Mus musculus [22]): 0.57 % g-1
Biodistribution (Mus musculus [23]): 3.09 % g-1
Biodistribution (Mus musculus [24]): 0.1 % g-1
Biodistribution (Mus musculus [25]): 0.08 % g-1
Biodistribution (Mus musculus [26]): 4.47 % g-1
Biodistribution (Mus musculus [27]): 0.04 % g-1
Biodistribution (Mus musculus [28]): 0.12 % g-1
Biodistribution (Mus musculus [29]): 0.15 % g-1
Biodistribution (Mus musculus [30]): 2.06 % g-1
Biodistribution (Mus musculus [31]): 0.08 % g-1
Biodistribution (Mus musculus [32]): 0.39 % g-1
Biodistribution (Mus musculus [33]): 0.09 % g-1
Biodistribution (Mus musculus [34]): 1.81 % g-1
Biodistribution (Mus musculus [35]): 0.1 % g-1
SMILES: N/C(CCn1cnc([N+](=O)[O-])c1)=N\O
